This note sets out measurements from patent publication US11136339B2, “Dihydroartemisinin diploid derivative, pharmaceutical composition thereof, and application” (priority 2017, dated 2021).

As a reminder, the solubility is how much of the substance goes into solution per volume. Higher therefore signals a readily soluble substance. As usually defined, the IC50 is the concentration that gives 50% inhibition. For orientation: AUC(0-t) means exposure summed from dosing to a finite time, without extrapolation to infinity. A higher AUC(0-t) goes with high exposure. For orientation: Cmax means the peak of the concentration-time curve. As usually defined, the MRT last is the average time that molecules of a dose stay in the body. A word on the clearance: it is the volume of plasma or blood freed of the substance per unit of time. High values mean efficient removal, low ones inefficient removal. The half-life is the time needed for the level to fall by half in the phase considered. Higher therefore signals slow loss.

pIC50: −log10 of the molar value. Converted amounts (≈) assume the structure as drawn.

The nature of series [1]: Solubility in water. The series is classed as physicochemical. As to conditions: 20 °C. Here is the method: 0.1 g of product B was dissolved in 20 mL of dichloromethane, added with 10 ml of TFA and 1 mL of triisopropylsilane, and reacted at 25° C. for 2 h. A reaction solution was diluted to 50 mL with dichloromethane, washed three times with saturated NaHCO3, and dried with Na2SO4, and a solvent was evaporated by rotation to obtain crude products. The crude product was purified by silica gel column (a mobile phase was dichloromethane: methanol/65:25) to obtain product of dihydroartemisinin dithiodiglycolic acid dimer carboxyl betaine. […] MS: [M+H]^+ 1039.27.

In series [2] the test system is human erythrocyte infected by plasmodium strain (3D7). As to the kind of experiment: Plasmodium killing test, SYBR Green I fluorescence method. The series is classed as cell-based. The settings on record: 3D7, Erythrocyte, 48 h, read-out: median inhibitory concentration IC50 for killing plasmodium.
Description: Method: a plasmodium killing effect of a sample measured by a SYBR Green I fluorescence method
Material: human erythrocyte infected by plasmodium strain (3D7) (0.5% parasitemia), RPMI 1640 complete medium, and carbon dioxide incubator (5% CO2, 5% O2, equilibrium N2, and 37° C.)
The medium was blank. The erythrocytes were incubated in a carbon dioxide incubator for 48 h (37° C.).
The subject of series [3] is MCF-7: human breast cancer cells. As to the kind of experiment: Human cancer cell killing test by MTT method, MCF-7. The series is classed as cell-based. As to conditions: MCF7, 96 h, read-out: IC50 MCF-7. On the procedure:
(§1) Well-growing tumor cells were collected, a RPM11640 medium containing 10% fetal bovine serum was used to prepare […] cell suspension, the tumor cells were inoculated in a 96-well culture plate, and 100 μL of the cell suspension (containing 1000 tumor cells) was added into each well, cultured in 5% CO2 incubator at 37° C. for 24 h, and then added with drugs (see Table 2). Blank control and solvent control were set in the experiment, and tested samples were set with four concentrations, with three parallel wells for each concentration, and cultured in 5% CO2 incubator at 37° C. for 4 days. A culture solution was discarded, and 100 μL of MTT solution (0.4 mg/mL, RPM11640 preparation) was added into each well and incubated at 37° C. for 4 h. A supernatant was discarded, 150 μL of […] was added into each well to dissolve particles, and after slight shaking, an OD value was measured at a detection wavelength of 540 nm and a reference wavelength of 450 nm with a 550 microplate reader.
(§2) Result calculation: a dose-response curve can be obtained by plotting different concentrations of drugs and inhibition rates to cells, from which the median inhibitory concentration (IC50) can be obtained, and results are shown in Table 2. […] This is probably because that the artesunate is released slowly. […]

The test system of series [4] is Hep G2: human liver cancer cells. As to the kind of experiment: Human cancer cell killing test by MTT method, Hep G2. The series is classed as cell-based. As to conditions: HepG2, 96 h, read-out: IC50 Hep G2. Here is the method: as §1, §2
The subject of series [5] is A549: human lung adenocarcinoma cells. As to the kind of experiment: Human cancer cell killing test by MTT method, A549. The series is classed as cell-based. As to conditions: A549, 96 h, read-out: IC50 A549. Here is the method: as §1, §2
The test system of series [6] is HeLa:
As to the kind of experiment: Human cancer cell killing test by MTT method, HeLa. The settings on record: 96 h, read-out: IC50 HeLa. The series is classed as cell-based. On the procedure:
as §1, §2

In series [7] the test system is HL-60: human promyelocytic leukemia cells. As to the kind of experiment: Human cancer cell killing test by MTT method, HL-60. The series is classed as cell-based. As to conditions: HL-60, 96 h, read-out: IC50 HL-60. On the procedure:
as §1, §2

Series [8] in a line: in vivo. As to conditions: female, BALB/c, mouse, iv, 10 mg/kg.
Description: BALB/c mice (female, five weeks, 20 g to 22 g) were divided into four groups (three mice in each group). […] A PBS solution of drugs was injected through tail vein.
Blood samples were respectively taken at predetermined times (0.25 h, 0.5 h, 1 h, 3 h, 6 h, 12 h, 24 h and 48 h) and centrifuged at 3,000 rpm for 10 min to obtain plasma.
Series [9] can be described thus: In-vivo toxicity test of a mouse, oral administration. The settings on record: ICR mouse, male. From the text: Animal: ICR mouse, male, 18 g to 22 g, purchased from Vital River Laboratory Animal Technology Co., Ltd.

The compound `C[C@H]1[C@H](OC(=O)CCC(=O)O)O[C@@H]2O[C@@]3(C)CC[C@H]4[C@H](C)CC[C@@H]1[C@@]24OO3` [Artesunate] displayed a solubility in [1] of 360 µg/mL (≈ 936 µM). Also, in [2], the pIC50 is 7.99. Besides, the IC50 in [3] worked out at 150 µg/mL (≈ 390 µM). Further, the IC50 in [4] was determined as 100 µg/mL (≈ 260 µM). Besides, in series [5], the IC50 worked out at 110 µg/mL (≈ 286 µM). In series [6], the IC50 stood at 130 µg/mL (≈ 338 µM). In series [7], the IC50 was found to be 130 µg/mL (≈ 338 µM). In series [8], this compound gave an AUC(0-t) of 80700 ng·h/mL, a Cmax of 23400 ng/mL, an MRT last of 2.71 h and a clearance of 3.73 mL/min/kg. In [8], this compound gave a half-life of 1.52 h.
As for `C[C@H]1[C@@H](O)O[C@@H]2O[C@@]3(C)CC[C@H]4[C@H](C)CC[C@@H]1[C@@]24OO3` [Dihydroartemisinin], the “Oral median lethal dose” value in [9] came to 810 mg/kg weight.
